The source of these data is patent US7078552B2, “Combretastatin A-1 phosphate and combretastatin B-1 phosphate prodrugs” (Arizona Board of Regents, priority 2000, dated 2006).

Test [1] deals with P388 lymphocytic leukemia cell line. The test can be described thus: Murine P388 lymphocytic leukemia in vitro cell growth inhibition. Type of test: cell-based. As to conditions: P388 cell line.
For test [2], the system named is BXPC-3. In words: Human cancer cell line growth inhibition, Pancreas-a BXPC-3. Type of test: cell-based.
Test [3] deals with NCl-H460. In words: Human cancer cell line growth inhibition, Lung-NSC NCl-H460. Type of test: cell-based. As to conditions: NCl-H460.
Test [4] has as its system DU-I45. In words: Human cancer cell line growth inhibition, Prostate DU-I45. Type of test: cell-based. To be noted: DU-I45.
For test [5], the system named is P388 lymphocytic leukemia cell line. As to conditions: literature (Pettit et al, 1987, 1989); cited from earlier work.
For test [6], the system named is tubulin (microtubule assembly). To be noted: literature (Pettit et al, 1987, 1989); read-out: IC50 inhibiting microtubule assembly in vitro; cited from earlier work.
Test [7] deals with tubulin. To be noted: at equal concentrations; cited from earlier work.
Test [8] deals with P388 leukemia. To be noted: early murine P388 leukemia in vivo experiments, compared with combretastatin A-4; cited from earlier work.

In brackets after ≈: the same amount, converted by molar mass.

As a reminder, the IC50 is the point on the concentration scale where inhibition reaches its midpoint.

Regarding `COc1ccc(/C=C\c2cc(OC)c(OC)c(OC)c2)c(O)c1O` [Compound 1, Combretastatin A-1], the “Leukemia P388 ED50” value in test [1] stood at 0.251 µg/mL. Further, in test [2], the “Pancreas-a BXPC-3 GI50” value turned out to be 4.4 µg/mL. Also, in test [3], the “Lung-NSC NCl-H460 GI50” value is 0.74 µg/mL. The “Prostate DU-I45 GI50” value in test [4] turned out to be 0.17 µg/mL. Also, the “ED50 against murine P388 lymphocytic leukemia in vitro system” value in test [5] is 0.99 µg/mL (≈ 2.98 µM). For the same molecule, the IC50 in test [6] was 2000 nM. The “inhibition of colchicine binding to tubulin” value in test [7] is listed as roughly 99%. Besides, the “antineoplastic results in vivo” value in test [8] is listed as “more consistent antineoplastic results”.
